The values that follow come from patent US6562359B2, “Pest repellent” (Sumitomo Chemical Company, Ltd., priority 1997, dated 2003).

What all share (assay type): in vivo
Assay [1] deals with mosquitoes (Culex pipiens pallens). Kind of assay: Test Example 2: mosquito entrance inhibition in treated cup, overnight luring. As to conditions: 3.0 mg/cup, tacky trap in cup.
Assay [2] deals with Clogmia albipunctata. Kind of assay: Test Example 5: entrance inhibition in treated cup, in the dark. As to conditions: 30 mg/cup, 2 hours after setting.
Assay [3] has as its system houseflies (Musca domestica). Kind of assay: Test Example 3: housefly entrance inhibition in treated cup. As to conditions: 100 mg/cup, powder milk and sugar lure.
The test system of assay [4] is Tineola bisselliella. Kind of assay: Test Example 6: entrance inhibition in treated carton with wool muslin. As to conditions: Tineola bisselliella female adults; 1 mg/cup (carton with wool muslin). An excerpt:
Insect entrance inhibition rate (%)={(number of insects attracted into the non-treated section−number of insects attracted into the treated section)/number of insects attracted into the non-treated section}×100 A lower end of a 4.5 cm×4.5 cm×4.5 cm carton was cut out to form a 0.5 cm×4.5 cm entrance of insects. A filter paper (2 cm×2 cm) impregnated with an acetone-diluted solution of the test substance was placed in the carton, and a 1 cm×1 cm piece of wool muslin was laid on said filter paper. This carton was set at a corner of a nylon gauze-made cage (20 cm×20 cm×30 cm), and a carton containing a filter paper not treated with hyssop oil and having wool muslin laid thereon was set at the diagonally opposite corner of the cage. About 60 female adults of Tineola bisselliella one to 2 days old after emergence were released in the cage, and the number of the insects which entered the cartons was counted. The test was conducted on a two-replication system.

For assay [5], the system named is mosquitoes (Aedes aegypti). Kind of assay: Test Example 1: mosquito entrance inhibition in treated cup. As to conditions: Aedes aegypti females; 0.3 mg/cup on filter paper; counted 10 minutes after setting; disposal warmer lure. The protocol:
A lower side part of a plastic cup (base diameter: 10 cm; top opening diameter: 12 cm; height: 7 cm; capacity: about 650 ml) was cut out to form a 2 cm square entrance of mosquitoes. At the center of said cup was placed a twofold disposal warmer (Kiribai New Hand Warmer, 24-hour type, 13.5×10 cm) as a lure for mosquitoes. A 9 cm-diameter filter paper was treated with a 1 ml solution of the test substance diluted with acetone to a predetermined concentration, and after acetone was air dried, said filter paper was attached to the inside of the cover of said cup with a double-side adhesive tape. This cover was fitted on said cup, allowing the test substance to volatilize and diffuse in the cup for one minute.
In a nylon gauze-made cage (50 cm×50 cm×50 cm) holding about 600 mosquitoes (Aedes aegypti) one to 2 weeks old after emergence (sex ratio=ca. 1:1), 2 said cups were placed cater-cornered across the cage, each of said cups being positioned about 10 cm away from the cage corner, to lure the mosquitoes. […] 10 minutes after setting the cups at said positions in the cage, each cup was taken out of the cage and the number of the female insects attracted into the cup was counted. Based on the obtained result, the insect entrance inhibition rate was calculated from the following equation: […]

In assay [6] the test system is Meqaselia spiracularis. Kind of assay: Test Example 4: entrance inhibition in treated cup, maggot rearing medium lure. As to conditions: 100 mg/cup, 30 minutes after setting.

Regarding `CCN(CC)C(=O)c1cccc(C)c1` [DEET, N,N-diethyl-m-toluamide], the Entrance inhibition rate in assay [1] was −10%; in assay [2], 50%; in assay [3], 34%; in assay [4], 9.5%; in assay [5], 38%; in assay [6] it was 34%.
